Data as given in patent US20240376085A1 (Janssen Pharmaceutica NV, priority 2021, published 2024).

Assays:
IL-17A : IL-17RA binding = target: T1, IL-17A : IL-17RA binding (Homo sapiens, UniProt Q16552, K93Q); test: IL-17A(FLAG-tagged):IL-17RA(His-tagged) binding disruption Eu-HTRF assay, Protocol 1; settings: FLAG-IL-17A 2.5 nM at 2x final concentration; average if tested more than once
T1 construct: Name: IL-17A-Flag
In short: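 IC50 came from a one-site competition fit of the acceptor/donor (665/620 nm) HTRF ratio. His-tagged IL-17RA, Eu-anti-FLAG and D2-anti-His were added after a 1 h rt compound preincubation with FLAG-tagged IL-17A dimer in PBS/0.01% Triton X-100, followed by 2 h at rt before reading.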

[1] = tested on: IL-17A-induced G-CSF production in human normal keratinocyte (NHK); test: NHK assay: IL-17A-induced G-CSF production in normal human keratinocytes; type: cell-based; settings: 24 h, IL-17A 5 ng/mL, average if tested more than once
In short: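 IC50 derives from G-CSF in supernatants, quantified by HTRF from a standard curve, with CellTiter-Glo viability compared to DMSO control. Before a 24 h, 37°C culture of normal human keratinocytes at 3000–4000 cells/well, compound dilutions were preincubated 1 h at rt with human IL-17A (5 ng/mL final), with 0.2% DMSO and 5% FBS.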

T1 sequence (Q16552 with tags, fused parts or gaps K93Q): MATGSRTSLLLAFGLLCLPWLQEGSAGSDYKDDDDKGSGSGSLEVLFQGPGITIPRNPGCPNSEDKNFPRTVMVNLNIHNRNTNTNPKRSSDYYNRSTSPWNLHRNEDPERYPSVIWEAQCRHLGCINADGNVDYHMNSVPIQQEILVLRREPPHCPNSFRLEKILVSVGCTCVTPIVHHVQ

| Compound | IC50 (IL-17A : IL-17RA binding) [nM] | IC50 ([1]; Homo sapiens, Keratinocyte) [nM] | IC50 [1] [nM] |
| --- | --- | --- | --- |
| O=C(CC1CC(F)(F)C1)N[C@@H](c1ccc2[nH]c([C@@H](NC(=O)c3nonc3OCC(F)F)C3CCC(F)(F)CC3)nc2c1)C1CC1 [Example 144, N—((S)-(5-((R)-Cyclopropyl(2-(3,3-difluorocyclobutyl)acetamido)methyl)-1H-benzo[d]imidazol-2-yl)(4,4-difluorocyclohexyl)methyl)-4-(2,2-difluoroethoxy)-1,2,5-oxadiazole-3-carboxamide] | > 100 | < 50 |  |
| CC(NC(=O)CCC(F)(F)F)c1ccc2nc([C@H](CC(C)(C)C(F)(F)F)NC(=O)c3ccnn3CCC(F)(F)F)[nH]c2c1 (single isomer, unassigned) [Example 229, N—((S)-4,4,4-Trifluoro-3,3-dimethyl-1-(6-((S*)-1-(4,4,4-trifluorobutanamido)ethyl)-1H-benzo[d]imidazol-2-yl)butyl)-1-(3,3,3-trifluoropropyl)-1H-pyrazole-5-carboxamide] | > 100 | > 100 |  |
| C[C@@H](NC(=O)CCC(F)(F)F)c1ccc2[nH]c([C@@H](NC(=O)c3conc3CCC(F)(F)F)C3CCC(F)(F)CC3)nc2c1 [Example 214, N—((S)-(4,4-Difluorocyclohexyl)(5-((R)-1-(4,4,4-trifluorobutanamido)ethyl)-1H-benzo[d]imidazol-2-yl)methyl)-3-(3,3,3-trifluoropropyl)isoxazole-4-carboxamide] | 50 to 100 | < 50 |  |
| Cc1nonc1C(=O)NC(CC(C)(C)C(F)(F)F)c1nc2cc([C@@H](C)NC(=O)CCC(F)(F)F)ccc2[nH]1 (single isomer, unassigned) [Example 198, 4-Methyl-N—((S*)-4,4,4-trifluoro-3,3-dimethyl-1-(5-((R)-1-(4,4,4-trifluorobutanamido)ethyl)-1H-benzo[d]imidazol-2-yl)butyl)-1,2,5-oxadiazole-3-carboxamide] | 50 to 100 | > 100 |  |
| C[C@@H](NC(=O)CCC(F)(F)F)c1ccc2[nH]c([C@@H](NC(=O)[C@@H]3C[C@H]3C(F)(F)F)C3CCC(F)(F)CC3)nc2c1 (relative stereo) [Example 106, trans-(1R*,2R*)—N—((S)-(4,4-Difluorocyclohexyl)(5-((R)-1-(4,4,4-trifluorobutanamido)ethyl)-1H-benzo[d]imidazol-2-yl)methyl)-2-(trifluoromethyl)cyclopropane-1-carboxamide] | > 100 | > 100 |  |
| C[C@@H](NC(=O)CCC(F)(F)F)c1ccc2nc([C@@H](NC(=O)c3cnnn3CCC(F)F)C3CCC(F)(F)CC3)[nH]c2c1 [Example 74, N—((S)-(4,4-Difluorocyclohexyl)(6-((R)-1-(4,4,4-trifluorobutanamido)ethyl)-1H-benzo[d]imidazol-2-yl)methyl)-1-(3,3-difluoropropyl)-1H-1,2,3-triazole-5-carboxamide] | > 100 | > 100 |  |
| C[C@@H](NC(=O)CCC(F)(F)F)c1ccc2[nH]c([C@@H](NC(=O)c3cnn(CCOC(F)(F)F)n3)C3CCC(F)(F)CC3)nc2c1 [Example 35, N—[(S)-(4,4-Difluorocyclohexyl)-[6-[(1R)-1-(4,4,4-trifluorobutanoylamino)ethyl]-1H-benzimidazol-2-yl]methyl]-2-[2-(trifluoromethoxy)ethyl]triazole-4-carboxamide] | > 100 | > 100 |  |
| CCC(NC(=O)CCC(F)(F)F)c1ccc2[nH]c([C@@H](NC(=O)c3ccnn3C)C3CCC(F)(F)CC3)nc2c1 (single isomer, unassigned) [Example 53, N—((S)-(4,4-Difluorocyclohexyl)(5-((R*)-1-(4,4,4-trifluorobutanamido)propyl)-1H-benzo[d]imidazol-2-yl)methyl)-1-methyl-1H-pyrazole-5-carboxamide] | > 100 |  | 50 to 100 |
| C[C@@H](NC(=O)CCC(F)(F)F)c1ccc2[nH]c([C@@H](NC(=O)c3cnn(CCCC(F)(F)F)n3)C3CCC(F)(F)CC3)nc2c1 [Example 19, N—[(S)-(4,4-Difluorocyclohexyl)-[6-[(1R)-1-(4,4,4-trifluorobutanoylamino)ethyl]-1H-benzimidazol-2-yl]methyl]-2-(4,4,4-trifluorobutyl)triazole-4-carboxamide] | > 100 | 50 to 100 |  |
| C[C@@H](NC(=O)CCC(F)(F)F)c1ccc2[nH]c([C@@H](NC(=O)c3ncn(CCC(F)(F)F)n3)C3CCC(F)(F)CC3)nc2c1 [Example 228, N—((S)-(4,4-Difluorocyclohexyl)(5-((R)-1-(4,4,4-trifluorobutanamido)ethyl)-1H-benzo[d]imidazol-2-yl)methyl)-1-(3,3,3-trifluoropropyl)-1H-1,2,4-triazole-3-carboxamide] | > 100 | > 100 |  |

More lines, main results first:

| IC50 (IL-17A : IL-17RA binding) [nM] | Compound | IC50 ([1]; Homo sapiens, Keratinocyte) [nM] | IC50 [1] [nM] |
| --- | --- | --- | --- |
| > 100 | C[C@@H](NC(=O)CCC(F)(F)F)c1ccc2[nH]c([C@@H](NC(=O)c3coc(CCC(F)(F)F)n3)C3CCC(F)(F)CC3)nc2c1 [Example 225, N—((S)-(4,4-Difluorocyclohexyl)(5-((R)-1-(4,4,4-trifluorobutanamido)ethyl)-1H-benzo[d]imidazol-2-yl)methyl)-2-(3,3,3-trifluoropropyl)oxazole-4-carboxamide] | > 100 |  |
| > 100 | C[C@@H](NC(=O)CCC(F)(F)F)c1ccc2[nH]c([C@@H](NC(=O)c3cnnn3CC3CC(F)(F)C3(F)F)C3CCC(F)(F)CC3)nc2c1 (stereo partly drawn) [Example 82, N—((S)-(4,4-Difluorocyclohexyl)(5-((R)-1-(4,4,4-trifluorobutanamido)ethyl)-1H-benzo[d]imidazol-2-yl)methyl)-1-((2,2,3,3-tetrafluorocyclobutyl)methyl)-1H-1,2,3-triazole-5-carboxamide] | > 100 |  |
| > 100 | C[C@@H](NC(=O)CCC(F)(F)F)c1ccc2[nH]c([C@@H](NC(=O)CC3CC3(F)F)C3CCC(F)(F)CC3)nc2c1 (single isomer, unassigned) [Example 108, N—((R)-1-(2-((S)-(4,4-Difluorocyclohexyl)(2-((S*)-2,2-difluorocyclopropyl)acetamido)methyl)-1H-benzo[d]imidazol-5-yl)ethyl)-4,4,4-trifluorobutanamide] |  | > 100 |
| 50 to 100 | CC(C)n1nccc1C(=O)N[C@H](c1nc2ccc([C@H](NC(=O)CC3CC(F)(F)C3)C3CC3)cc2[nH]1)[C@@H]1C[C@H]2C[C@H]2C1 [Example 255, N—((S)-((1R,3s,5S)-Bicyclo[3.1.0]hexan-3-yl)(6-((R)-cyclopropyl(2-(3,3-difluorocyclobutyl)acetamido)methyl)-1H-benzo[d]imidazol-2-yl)methyl)-1-isopropyl-1H-pyrazole-5-carboxamide] | < 50 |  |
| < 50 | Cc1nonc1C(=O)N[C@@H](COC(C)(C)C(F)(F)F)c1nc2ccc([C@H](NC(=O)CC3CC(F)(F)C3)C3CC3)cc2[nH]1 (relative stereo) [Example 161, N—((R*)-1-(6-((R)-Cyclopropyl(2-(3,3-difluorocyclobutyl)acetamido)methyl)-1H-benzo[d]imidazol-2-yl)-2-((1,1,1-trifluoro-2-methylpropan-2-yl)oxy)ethyl)-4-methyl-1,2,5-oxadiazole-3-carboxamide] | 50 to 100 |  |
